Measurements: ChEMBL document CHEMBL5608174, “Synthesis and biological evaluation of 4-phenyl-5-quinolinyl substituted isoxazole analogues as potent cytotoxic and tubulin polymerization inhibitors against ESCC” (Eur J Med Chem, 2024)
Active and inactive are the calls of the source. The rule behind the calls is not given here.

How the values were obtained:
[1] = tested on: KYSE-70 cell line; experiment: Induction of apoptosis in human KYSE-70 cells assessed as late apoptotic cells at 20 nmol/L incubated for 48 hrs by Annexin V-FITC/PI staining based flow cytometry analysis (reference value: 3.01%); type: functional
[2] = tested on: MGC-803; experiment: Antiproliferative activity against human MGC-803 cells assessed as inhibition of cell proliferation incubated for 48 hrs by MTT assay; type: functional, cell-based; details: MGC-803, 48 h
[3] = tested on: KYSE-450; experiment: Antiproliferative activity against human KYSE-450 cells assessed as inhibition of cell growth incubated for 48 hrs by MTT assay; type: functional, cell-based; details: KYSE-450, 48 h
[4] = species on record: Sus scrofa; experiment: Inhibition of porcine brain tubulin polymerization measured every 30 secs for 120 times in the presence of GTP by fluorescence based assay; details: time 60.0 min
[5] = molecular target: Tubulin beta (Homo sapiens) (UniProt P68371+Q9H4B7+Q13509+P04350+Q3ZCM7+P07437+Q13885+Q9BVA1+Q9BUF5+A6NNZ2); experiment: Binding affinity to beta-tubulin colchicine binding site in human KYSE-30 cells assessed as inhibition of EBI-beta-tubulin adduct band formation at 0 to 10 micromol/L preincubated for 2 hrs followed by EBI addition measured after 2 hrs by EBI competition based Western blotting analysis; type: cell-based; details: dose 0-10 µmol/L, time 4.0 hrs
[6] = tested on: KYSE-30; experiment: Inhibition of human KYSE-30 cells proliferation at 5 to 20 nmol/L incubated for 48 hrs by real time cellular analysis; type: functional, cell-based; details: dose 5-20 nmol/L
[7] = tested on: KYSE-70 cell line; experiment: Inhibition of human KYSE-70 cells proliferation at 5 to 20 nmol/L incubated for 48 hrs by real time cellular analysis; type: functional, cell-based; details: dose 5-20 nmol/L
[8] = tested on: KYSE-30; experiment: Upregulation of p-Histone H3 level in human KYSE-30 cells at 5 to 20 nmol/L by Western blot analysis; type: functional, cell-based; details: dose 5-20 nmol/L
[9] = tested on: KYSE-30; experiment: Induction of morphological changes in human KYSE-30 cells assessed as deformation at 5 to 20 nmol/L incubated for 48 hrs by Bright field microscopic analysis; type: functional, cell-based; details: dose 5-20 nmol/L
[10] = tested on: KYSE-30; experiment: Induction of morphological changes in human KYSE-30 cells assessed as fragmentation at 5 to 20 nmol/L incubated for 48 hrs by Bright field microscopic analysis; type: functional, cell-based; details: dose 5-20 nmol/L
[11] = tested on: KYSE-30; experiment: Induction of apoptosis in human KYSE-30 cells assessed as necrotic cells at 5 nmol/L incubated for 48 hrs by Annexin V-FITC/PI staining based flow cytometry analysis (reference value: 1.59 %); type: functional
[12] = tested on: KYSE-30; experiment: Induction of apoptosis in human KYSE-30 cells assessed as viable cells at 10 nmol/L incubated for 48 hrs by Annexin V-FITC/PI staining based flow cytometry analysis (reference value: 88.76 %); type: functional; details: read-out: Activity
[13] = tested on: KYSE-30; experiment: Induction of apoptosis in human KYSE-30 cells assessed as early apoptotic cells at 10 nmol/L incubated for 48 hrs by Annexin V-FITC/PI staining based flow cytometry analysis (reference value: 4.38 %); type: functional
[14] = tested on: KYSE-30; experiment: Induction of apoptosis in human KYSE-30 cells assessed as viable cells at 20 nmol/L incubated for 48 hrs by Annexin V-FITC/PI staining based flow cytometry analysis (reference value: 88.76 %); type: functional; details: read-out: Activity
[15] = tested on: KYSE-30; experiment: Induction of apoptosis in human KYSE-30 cells assessed as late apoptotic cells at 20 nmol/L incubated for 48 hrs by Annexin V-FITC/PI staining based flow cytometry analysis (reference value: 5.27 %); type: functional
[16] = tested on: KYSE-70 cell line; experiment: Induction of apoptosis in human KYSE-70 cells assessed as early apoptotic cells at 5 nmol/L incubated for 48 hrs by Annexin V-FITC/PI staining based flow cytometry analysis (reference value: 1.78%); type: functional
[17] = tested on: KYSE-70 cell line; experiment: Induction of apoptosis in human KYSE-70 cells assessed as late apoptotic cells at 5 nmol/L incubated for 48 hrs by Annexin V-FITC/PI staining based flow cytometry analysis (reference value: 3.01%); type: functional
[18] = tested on: KYSE-70 cell line; experiment: Induction of apoptosis in human KYSE-70 cells assessed as early apoptotic cells at 10 nmol/L incubated for 48 hrs by Annexin V-FITC/PI staining based flow cytometry analysis (reference value: 1.78%); type: functional
[19] = tested on: KYSE-70 cell line; experiment: Induction of apoptosis in human KYSE-70 cells assessed as early apoptotic cells at 20 nmol/L incubated for 48 hrs by Annexin V-FITC/PI staining based flow cytometry analysis (reference value: 1.78%); type: functional
[20] = tested on: Esophageal squamous cell carcinoma cell; experiment: Induction of apoptosis in human Esophageal squamous cell carcinoma cell assessed as increase in caspase-3 activation at 5 to 20 nmol/L incubated for 48 hrs by Western blot analysis; type: functional, cell-based; details: dose 5-20 nmol/L
[21] = tested on: Esophageal squamous cell carcinoma cell; experiment: Induction of apoptosis in human Esophageal squamous cell carcinoma cell assessed as increase in caspase-9 activation at 5 to 20 nmol/L incubated for 48 hrs by Western blot analysis; type: functional, cell-based; details: dose 5-20 nmol/L
[22] = tested on: KYSE-30; experiment: Inhibition of cell migration in human KYSE-30 cells at 2 to 6 nmol/L incubated upto 48 hrs by wound healing assay; type: functional, cell-based; details: dose 2-6 nmol/L
[23] = tested on: KYSE-70 cell line; experiment: Inhibition of cell migration in human KYSE-70 cells at 2 to 6 nmol/L incubated upto 48 hrs by wound healing assay; type: functional, cell-based; details: dose 2-6 nmol/L
[24] = tested on: KYSE-30; experiment: Antitumor activity against human KYSE-30 cells xenografted in female BALB/c-nu nude mouse assessed as reduction in tumor volume at 6 to 12 mg/kg, ip administered daily for 15 days; type: functional, organism-based; details: dose 6-12 mg/kg, time 15.0 day
[25] = Toxicity in female BALB/c-nu nude mouse xenografted with human KYSE-30 cells assessed as effect on serum total bilirubin level at 6 to 12 mg/kg, ip administered for 15 days by biochemical analysis; type: organism-based; details: in vivo, 360 h, dose 6-12 mg/kg, time 15 day
[26] = Toxicity in female BALB/c-nu nude mouse xenografted with human KYSE-30 cells assessed as effect on serum blood urea nitrogen level at 6 to 12 mg/kg, ip administered for 15 days by biochemical analysis; type: organism-based; details: in vivo, 360 h, dose 6-12 mg/kg, time 15 day
[27] = Toxicity in female BALB/c-nu nude mouse xenografted with human KYSE-30 cells assessed as effect on serum creatinine level at 6 to 12 mg/kg, ip administered for 15 days by biochemical analysis; type: organism-based; details: in vivo, 360 h, dose 6-12 mg/kg, time 15 day
[28] = Toxicity in female BALB/c-nu nude mouse xenografted with human KYSE-30 cells assessed as change in heart pathology at 6 to 12 mg/kg, ip administered for 15 days by H and E staining based analysis; type: organism-based; details: in vivo, 360 h, dose 6-12 mg/kg, time 15 day
[29] = Toxicity in female BALB/c-nu nude mouse xenografted with human KYSE-30 cells assessed as change in spleen pathology at 6 to 12 mg/kg, ip administered for 15 days by H and E staining based analysis; type: organism-based; details: in vivo, 360 h, dose 6-12 mg/kg, time 15 day
[30] = Toxicity in female BALB/c-nu nude mouse xenografted with human KYSE-30 cells assessed as change in lung pathology at 6 to 12 mg/kg, ip administered for 15 days by H and E staining based analysis; type: organism-based; details: in vivo, 360 h, dose 6-12 mg/kg, time 15 day
[31] = Toxicity in female BALB/c-nu nude mouse xenografted with human KYSE-30 cells assessed as change in kidney pathology at 6 to 12 mg/kg, ip administered for 15 days by H and E staining based analysis; type: organism-based; details: in vivo, 360 h, dose 6-12 mg/kg, time 15 day
[32] = tested on: KYSE-30
Description: (§1) Antiproliferative activity against human KYSE-30 cells assessed as inhibition of cell proliferation incubated for 48 hrs by MTT assay

[33] = tested on: KYSE-30; experiment: cells; details: Homo sapiens, KYSE-30, 48 h
Description: as §1

[34] = tested on: HCT-116; experiment: cells; details: Homo sapiens, HCT-116, 48 h
Description: Antiproliferative activity against human HCT-116 cells assessed as inhibition of cell proliferation incubated for 48 hrs by MTT assay

For COc1ccc(-c2cnoc2-c2cc(C)nc3ccccc23)cc1, which Activity [1] is on record?
Its Activity is 17.48%.

What about the IC50 [2] of the same compound?
Its IC50 is 14 nM.

And the IC50 [3]?
Its IC50 is 19.2 nM.

What about the inhibition [4] of the same compound?
The inhibition was “Active”.

And the Activity [5]?
The Activity was “Active”.

And the inhibition [6]?
Its inhibition is “Active”.

What about the inhibition [7] of the same compound?
The inhibition was “Active”.

What about the Activity [8] of the same compound?
The Activity was “Active”.

And the Activity [9]?
The Activity was “Active”.

What about the Activity [10] of the same compound?
The Activity was “Active”.

What about the Activity [11] of the same compound?
Its Activity is 2.61%.

And the viability at 0.01 µM [12]?
Its viability at 0.01 µM is 37.5%.

And the Activity [13]?
Its Activity is 47.75%.

And the viability at 0.02 µM [14]?
The viability at 0.02 µM was 38.9%.

What about the Activity [15] of the same compound?
Its Activity is 10.13%.

And the Activity [16]?
The Activity was 8.24%.

And the Activity [17]?
The Activity was 6.21%.

What about the Activity [18] of the same compound?
Its Activity is 28.93%.

What about the Activity [19] of the same compound?
Its Activity is 30.31%.

What about the Activity [20] of the same compound?
The Activity was “Active”.

And the Activity [21]?
The Activity was “Active”.

What about the inhibition [22] of the same compound?
The inhibition was “Active”.

And the inhibition [23]?
Its inhibition is “Active”.

And the Activity [24]?
The Activity was “Active”.

What about the Activity [25] of the same compound?
Its Activity is “Non-Toxic”.

And the Activity [26]?
Its Activity is “Non-Toxic”.

What about the Activity [27] of the same compound?
Its Activity is “Non-Toxic”.

What about the Activity [28] of the same compound?
The Activity was “Non-Toxic”.

What about the Activity [29] of the same compound?
The Activity was “Non-Toxic”.

What about the Activity [30] of the same compound?
The Activity was “Non-Toxic”.

What about the Activity [31] of the same compound?
The Activity was “Non-Toxic”.

What about the IC50 [32] of the same compound?
The IC50 was 13.1 nM.

And the IC50 [33]?
Its IC50 is 13 nM.

What about the IC50 [34] of the same compound?
Its IC50 is 26 nM.
